Tests used:
Experiment in all cases: Eurofins kinase panel
Assay type in all cases: biochemical
Conditions in all cases: read-out: Inhibition rate (%)
[1] = target: T1, DYRK1B(h) (Homo sapiens, UniProt Q9Y463)
T1 construct: purchased Eurofins (KinaseProfiler)

[2] = target: T2, JAK2(h) (Homo sapiens, UniProt O60674)
T2 construct: purchased Eurofins (KinaseProfiler)

[3] = target: T3, IRE1(h) (Homo sapiens, UniProt O75460)
T3 construct: purchased Eurofins (KinaseProfiler)

[4] = target: T4, DCAMKL2(h) (Homo sapiens, UniProt Q8N568)
T4 construct: purchased Eurofins (KinaseProfiler)
T4 sequence (Q8N568 1-766): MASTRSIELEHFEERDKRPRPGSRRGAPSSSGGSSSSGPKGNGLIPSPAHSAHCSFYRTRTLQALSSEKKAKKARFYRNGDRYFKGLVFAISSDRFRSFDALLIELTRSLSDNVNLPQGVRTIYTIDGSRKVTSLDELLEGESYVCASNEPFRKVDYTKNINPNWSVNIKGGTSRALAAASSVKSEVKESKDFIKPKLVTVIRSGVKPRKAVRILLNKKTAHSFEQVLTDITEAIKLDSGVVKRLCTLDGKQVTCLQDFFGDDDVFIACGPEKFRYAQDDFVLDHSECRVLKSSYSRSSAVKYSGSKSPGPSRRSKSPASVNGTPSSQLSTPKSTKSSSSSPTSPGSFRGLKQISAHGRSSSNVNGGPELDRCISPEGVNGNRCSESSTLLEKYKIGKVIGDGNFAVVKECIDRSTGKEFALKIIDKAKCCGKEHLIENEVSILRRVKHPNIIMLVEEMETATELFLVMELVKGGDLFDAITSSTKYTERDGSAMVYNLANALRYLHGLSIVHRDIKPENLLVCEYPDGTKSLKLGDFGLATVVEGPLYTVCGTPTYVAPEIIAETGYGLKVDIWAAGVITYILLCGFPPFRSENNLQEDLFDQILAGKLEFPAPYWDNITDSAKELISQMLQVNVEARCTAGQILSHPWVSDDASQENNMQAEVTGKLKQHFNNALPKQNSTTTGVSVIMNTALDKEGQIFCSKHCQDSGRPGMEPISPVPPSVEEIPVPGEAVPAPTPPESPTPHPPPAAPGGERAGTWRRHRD

[5] = target: T5, LOK(h) (Homo sapiens, UniProt O94804)
T5 construct: purchased Eurofins (KinaseProfiler)
T5 sequence (O94804 whole entry): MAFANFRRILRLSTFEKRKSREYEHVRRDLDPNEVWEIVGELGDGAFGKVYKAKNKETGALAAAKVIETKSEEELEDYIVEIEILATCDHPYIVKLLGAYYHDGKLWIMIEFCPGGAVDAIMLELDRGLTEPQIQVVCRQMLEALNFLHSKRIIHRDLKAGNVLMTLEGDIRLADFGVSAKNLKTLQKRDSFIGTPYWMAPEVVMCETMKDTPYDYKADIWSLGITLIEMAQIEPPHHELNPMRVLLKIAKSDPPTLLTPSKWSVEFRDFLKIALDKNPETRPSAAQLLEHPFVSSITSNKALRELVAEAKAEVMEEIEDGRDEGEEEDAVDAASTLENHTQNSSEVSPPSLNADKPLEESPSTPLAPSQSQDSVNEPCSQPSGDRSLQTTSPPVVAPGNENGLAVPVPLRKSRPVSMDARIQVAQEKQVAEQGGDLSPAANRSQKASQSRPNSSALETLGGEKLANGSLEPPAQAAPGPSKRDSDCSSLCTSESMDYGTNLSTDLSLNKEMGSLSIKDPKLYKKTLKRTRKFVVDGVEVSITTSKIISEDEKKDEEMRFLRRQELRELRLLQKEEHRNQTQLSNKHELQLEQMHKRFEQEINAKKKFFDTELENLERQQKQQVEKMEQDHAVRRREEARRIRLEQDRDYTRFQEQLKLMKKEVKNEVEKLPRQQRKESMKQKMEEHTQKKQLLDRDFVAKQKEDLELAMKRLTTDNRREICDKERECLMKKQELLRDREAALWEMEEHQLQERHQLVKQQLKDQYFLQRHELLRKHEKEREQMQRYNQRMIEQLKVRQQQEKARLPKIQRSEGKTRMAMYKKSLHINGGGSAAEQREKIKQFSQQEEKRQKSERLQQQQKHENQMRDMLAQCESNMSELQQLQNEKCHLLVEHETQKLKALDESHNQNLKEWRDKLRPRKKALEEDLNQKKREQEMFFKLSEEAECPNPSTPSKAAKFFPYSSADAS

[6] = target: T6, NIM1(h) (Homo sapiens, UniProt Q8IY84)
T6 construct: purchased Eurofins (KinaseProfiler)

[7] = target: T7, PKCα(h) (Homo sapiens, UniProt P17252)
T7 construct: purchased Eurofins (KinaseProfiler)

[8] = target: T8, ALK4(h) (Homo sapiens, UniProt P36896)
T8 construct: purchased Eurofins (KinaseProfiler)
T8 sequence (P36896 24-505): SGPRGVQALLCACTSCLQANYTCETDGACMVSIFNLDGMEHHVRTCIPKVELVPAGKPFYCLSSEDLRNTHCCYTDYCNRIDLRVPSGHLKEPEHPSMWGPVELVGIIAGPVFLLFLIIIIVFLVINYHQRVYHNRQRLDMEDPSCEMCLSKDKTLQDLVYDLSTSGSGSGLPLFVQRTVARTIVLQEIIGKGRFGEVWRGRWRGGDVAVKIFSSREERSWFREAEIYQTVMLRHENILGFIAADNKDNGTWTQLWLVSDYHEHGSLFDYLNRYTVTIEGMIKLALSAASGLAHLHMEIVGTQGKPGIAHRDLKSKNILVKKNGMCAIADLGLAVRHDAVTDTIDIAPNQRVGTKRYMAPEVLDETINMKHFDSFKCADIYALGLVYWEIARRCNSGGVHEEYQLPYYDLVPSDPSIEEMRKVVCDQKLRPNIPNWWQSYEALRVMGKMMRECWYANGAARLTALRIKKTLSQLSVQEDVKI

[9] = target: T9, mTOR(h) (Homo sapiens, UniProt P42345)
T9 construct: purchased Eurofins (KinaseProfiler)

[10] = target: T10, Pim-3(h) (Homo sapiens, UniProt Q86V86)
T10 construct: purchased Eurofins (KinaseProfiler)

[11] = target: T11, MARK3(h) (Homo sapiens, UniProt P27448)
T11 construct: purchased Eurofins (KinaseProfiler)
T11 sequence (P27448 whole entry): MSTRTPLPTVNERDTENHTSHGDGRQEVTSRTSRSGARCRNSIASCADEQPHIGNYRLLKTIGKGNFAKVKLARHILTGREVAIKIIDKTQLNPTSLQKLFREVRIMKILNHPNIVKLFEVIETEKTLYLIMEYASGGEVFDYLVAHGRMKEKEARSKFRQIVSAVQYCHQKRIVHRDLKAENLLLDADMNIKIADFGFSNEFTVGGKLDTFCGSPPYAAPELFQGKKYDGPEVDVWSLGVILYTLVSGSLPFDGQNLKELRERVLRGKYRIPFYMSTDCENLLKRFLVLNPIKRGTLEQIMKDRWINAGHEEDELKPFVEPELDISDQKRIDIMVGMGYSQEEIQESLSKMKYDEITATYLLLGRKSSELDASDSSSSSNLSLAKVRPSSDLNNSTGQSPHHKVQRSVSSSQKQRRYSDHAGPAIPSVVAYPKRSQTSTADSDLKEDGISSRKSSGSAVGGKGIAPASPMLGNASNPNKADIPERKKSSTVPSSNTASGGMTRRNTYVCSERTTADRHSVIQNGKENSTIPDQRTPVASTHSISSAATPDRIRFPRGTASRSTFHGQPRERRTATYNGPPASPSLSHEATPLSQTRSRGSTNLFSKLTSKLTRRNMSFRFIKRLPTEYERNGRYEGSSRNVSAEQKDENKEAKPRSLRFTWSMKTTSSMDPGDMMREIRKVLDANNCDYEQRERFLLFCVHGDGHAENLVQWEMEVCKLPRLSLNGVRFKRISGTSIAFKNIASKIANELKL

[12] = target: T12, Rsk1(h) (Homo sapiens, UniProt Q15418)
T12 construct: purchased Eurofins (KinaseProfiler)

[13] = target: T13, ZIPK(h) (Homo sapiens, UniProt O43293)
T13 construct: purchased Eurofins (KinaseProfiler)

[14] = target: T14, SRPK2(h) (Homo sapiens, UniProt P78362)
T14 construct: purchased Eurofins (KinaseProfiler)

[15] = target: T15, CDK5/p25(h) (Homo sapiens, UniProt Q00535)
T15 construct: purchased Eurofins (KinaseProfiler)
T15 sequence (Q00535 whole entry): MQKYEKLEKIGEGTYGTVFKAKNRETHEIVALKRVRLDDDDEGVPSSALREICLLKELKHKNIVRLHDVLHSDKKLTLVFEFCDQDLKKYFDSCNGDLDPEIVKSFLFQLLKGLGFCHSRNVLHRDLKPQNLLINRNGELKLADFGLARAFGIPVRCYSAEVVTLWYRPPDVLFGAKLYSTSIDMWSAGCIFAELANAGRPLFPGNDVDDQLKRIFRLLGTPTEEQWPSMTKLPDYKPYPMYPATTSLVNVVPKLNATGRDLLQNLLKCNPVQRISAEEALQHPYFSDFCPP
T15 sequence (Q15078 99-307 partner limits assumed): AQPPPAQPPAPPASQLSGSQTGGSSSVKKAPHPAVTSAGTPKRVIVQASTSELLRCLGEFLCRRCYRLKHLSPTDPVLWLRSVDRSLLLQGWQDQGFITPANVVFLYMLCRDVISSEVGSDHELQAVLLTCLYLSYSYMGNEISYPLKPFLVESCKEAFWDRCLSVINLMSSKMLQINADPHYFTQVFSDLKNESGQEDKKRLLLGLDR

T3 sequence (O75460 19-977): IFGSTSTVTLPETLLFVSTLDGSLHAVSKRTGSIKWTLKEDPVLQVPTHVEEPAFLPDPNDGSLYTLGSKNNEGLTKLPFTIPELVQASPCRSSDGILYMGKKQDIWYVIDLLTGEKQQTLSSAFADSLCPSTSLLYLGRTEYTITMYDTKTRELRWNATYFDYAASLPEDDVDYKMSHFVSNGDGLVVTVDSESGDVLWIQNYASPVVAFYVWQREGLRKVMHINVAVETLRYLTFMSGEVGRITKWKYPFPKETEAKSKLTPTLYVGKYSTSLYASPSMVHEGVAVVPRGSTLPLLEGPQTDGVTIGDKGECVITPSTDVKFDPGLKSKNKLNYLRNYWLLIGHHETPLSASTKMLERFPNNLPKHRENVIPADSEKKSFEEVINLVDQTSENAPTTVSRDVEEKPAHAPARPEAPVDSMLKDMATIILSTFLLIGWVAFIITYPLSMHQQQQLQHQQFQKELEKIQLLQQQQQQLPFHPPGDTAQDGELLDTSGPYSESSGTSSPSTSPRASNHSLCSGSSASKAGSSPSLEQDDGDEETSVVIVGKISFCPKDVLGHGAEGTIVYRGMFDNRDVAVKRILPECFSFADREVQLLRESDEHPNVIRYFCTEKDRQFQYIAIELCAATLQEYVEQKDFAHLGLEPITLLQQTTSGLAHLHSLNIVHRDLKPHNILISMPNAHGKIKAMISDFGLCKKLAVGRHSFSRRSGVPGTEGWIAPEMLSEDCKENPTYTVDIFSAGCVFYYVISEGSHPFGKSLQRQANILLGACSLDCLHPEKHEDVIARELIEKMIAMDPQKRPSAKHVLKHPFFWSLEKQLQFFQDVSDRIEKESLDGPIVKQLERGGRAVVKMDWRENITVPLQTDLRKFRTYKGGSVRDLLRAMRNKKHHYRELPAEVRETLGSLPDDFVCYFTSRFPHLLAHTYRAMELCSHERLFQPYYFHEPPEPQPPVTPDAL
T1 sequence (Q9Y463 whole entry): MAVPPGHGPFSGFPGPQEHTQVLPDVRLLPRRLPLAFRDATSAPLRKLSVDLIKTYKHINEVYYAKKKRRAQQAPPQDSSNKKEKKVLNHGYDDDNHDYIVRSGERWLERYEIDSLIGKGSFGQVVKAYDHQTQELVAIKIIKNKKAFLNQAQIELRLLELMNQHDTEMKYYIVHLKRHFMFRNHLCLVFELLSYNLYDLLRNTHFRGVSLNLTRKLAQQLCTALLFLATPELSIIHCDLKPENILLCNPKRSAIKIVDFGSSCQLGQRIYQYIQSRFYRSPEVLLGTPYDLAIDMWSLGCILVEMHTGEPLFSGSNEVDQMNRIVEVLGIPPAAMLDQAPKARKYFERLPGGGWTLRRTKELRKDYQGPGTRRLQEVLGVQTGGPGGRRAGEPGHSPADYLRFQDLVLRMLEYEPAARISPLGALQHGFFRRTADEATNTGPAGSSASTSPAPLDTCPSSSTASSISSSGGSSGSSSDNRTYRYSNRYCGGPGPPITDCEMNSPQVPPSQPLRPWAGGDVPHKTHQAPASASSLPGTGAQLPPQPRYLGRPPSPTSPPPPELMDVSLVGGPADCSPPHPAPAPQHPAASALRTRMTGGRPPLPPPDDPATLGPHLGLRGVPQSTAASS

## COc1cc(OC)c(Cl)c(-c2ccc3c(NC(=O)c4ccc(N5CCNC(C)(C)C5)cc4)n[nH]c3n2)c1Cl [3D185]
[1]; 10 nM
  inhibition at 0.01 µM: 12%
[1]; 100 nM
  inhibition at 0.1 µM: 3%
[1]; 1000 nM
  inhibition at 1 µM: 3%
[2]; 10 nM
  inhibition at 0.01 µM: -14%
[2]; 100 nM
  inhibition at 0.1 µM: 5%
[2]; 1000 nM
  inhibition at 1 µM: 6%
[3]; 10 nM
  inhibition at 0.01 µM: -1%
[3]; 100 nM
  inhibition at 0.1 µM: -13%
[3]; 1000 nM
  inhibition at 1 µM: 6%
[4]; 10 nM
  inhibition at 0.01 µM: 8%
[4]; 100 nM
  inhibition at 0.1 µM: 18%
[4]; 1000 nM
  inhibition at 1 µM: 28%
[5]; 10 nM
  inhibition at 0.01 µM: 1%
[5]; 100 nM
  inhibition at 0.1 µM: 27%
[5]; 1000 nM
  inhibition at 1 µM: 77%
[6]; 10 nM
  inhibition at 0.01 µM: -9%
[6]; 100 nM
  inhibition at 0.1 µM: 0%
[6]; 1000 nM
  inhibition at 1 µM: 0%
[7]; 10 nM
  inhibition at 0.01 µM: -1%
[7]; 100 nM
  inhibition at 0.1 µM: 1%
[7]; 1000 nM
  inhibition at 1 µM: 3%
[8]; 10 nM
  inhibition at 0.01 µM: -4%
[8]; 100 nM
  inhibition at 0.1 µM: -7%
[8]; 1000 nM
  inhibition at 1 µM: 5%
[9]; 10 nM
  inhibition at 0.01 µM: -2%
[9]; 100 nM
  inhibition at 0.1 µM: -2%
[9]; 1000 nM
  inhibition at 1 µM: 4%
[10]; 10 nM
  inhibition at 0.01 µM: -5%
[10]; 100 nM
  inhibition at 0.1 µM: -11%
[10]; 1000 nM
  inhibition at 1 µM: -1%
[11]; 10 nM
  inhibition at 0.01 µM: 7%
[11]; 100 nM
  inhibition at 0.1 µM: -6%
[11]; 1000 nM
  inhibition at 1 µM: -4%
[12]; 10 nM
  inhibition at 0.01 µM: -1%
[12]; 100 nM
  inhibition at 0.1 µM: -4%
[12]; 1000 nM
  inhibition at 1 µM: 24%
[13]; 10 nM
  inhibition at 0.01 µM: -3%
[13]; 100 nM
  inhibition at 0.1 µM: 0%
[13]; 1000 nM
  inhibition at 1 µM: 2%
[14]; 10 nM
  inhibition at 0.01 µM: 2%
[14]; 100 nM
  inhibition at 0.1 µM: 2%
[14]; 1000 nM
  inhibition at 1 µM: -7%
[15]; 10 nM
  inhibition at 0.01 µM: 10%
[15]; 100 nM
  inhibition at 0.1 µM: 4%
[15]; 1000 nM
  inhibition at 1 µM: 3%

— article PMC6704710, “Preclinical evaluation of 3D185, a novel potent inhibitor of FGFR1/2/3 and CSF-1R, in FGFR-dependent and macrophage-dominant cancer models” (Journal of Experimental & Clinical Cancer Research : CR, 2019)
